Assay [1] concerns the target T1, SMARCA2 (Homo sapiens, UniProt P51531). The assay can be described thus: SMARCA2 Western blot MV4-11 degradation. It is filed as cell-based. The settings on record: 24 h; for Dmax: MV4-11, MV4-11 cells, read-out: SMARCA2 WB MV411 degradation 24 h: Average Dmax %; for DC50: MV4-11 cells, read-out: SMARCA2 WB MV411 degradation 24 h: Average external-Abs DC50. The method in brief: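 MV4-11 cells treated with compound for 24 h, lysed in RIPA with protease/phosphatase inhibitors, and SMARCA2 and SMARCA4 (BRG1) levels assessed by Western blot with β-actin loading control and LI-COR fluorescent read-out. Maximal degradation (Dmax %) after 24 h binned into letter codes.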

Assay [2] has as its target T1, SMARCA2. Nature of the assay: MSD SMARCA2 degradation in NCI-H1299 cell line (24 h). It is filed as cell-based. The arrangement: HC: NCI-H1299 cells treated with DMSO; host or cells: NCI-H1299. The note with it: for Dmax: NCI-H1299, NCI-H1299 cells; for DC50: read-out: SMARCA2 MSD H1299 degradation 24 h: External Abs-DC50. The method in brief:
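SMARCA2 measured by MSD electrochemiluminescence (primary 0.3 ug/ml, secondary 1 ug/ml) on lysates from NCI-H1299 cells exposed to compounds for 24 h across nine 3-fold dilutions. Signal scaled from A2780 cells (no SMARCA2) to DMSO-treated H1299 controls, and maximal degradation after 24 h reported in letter categories.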

T1 sequence (P51531 whole entry): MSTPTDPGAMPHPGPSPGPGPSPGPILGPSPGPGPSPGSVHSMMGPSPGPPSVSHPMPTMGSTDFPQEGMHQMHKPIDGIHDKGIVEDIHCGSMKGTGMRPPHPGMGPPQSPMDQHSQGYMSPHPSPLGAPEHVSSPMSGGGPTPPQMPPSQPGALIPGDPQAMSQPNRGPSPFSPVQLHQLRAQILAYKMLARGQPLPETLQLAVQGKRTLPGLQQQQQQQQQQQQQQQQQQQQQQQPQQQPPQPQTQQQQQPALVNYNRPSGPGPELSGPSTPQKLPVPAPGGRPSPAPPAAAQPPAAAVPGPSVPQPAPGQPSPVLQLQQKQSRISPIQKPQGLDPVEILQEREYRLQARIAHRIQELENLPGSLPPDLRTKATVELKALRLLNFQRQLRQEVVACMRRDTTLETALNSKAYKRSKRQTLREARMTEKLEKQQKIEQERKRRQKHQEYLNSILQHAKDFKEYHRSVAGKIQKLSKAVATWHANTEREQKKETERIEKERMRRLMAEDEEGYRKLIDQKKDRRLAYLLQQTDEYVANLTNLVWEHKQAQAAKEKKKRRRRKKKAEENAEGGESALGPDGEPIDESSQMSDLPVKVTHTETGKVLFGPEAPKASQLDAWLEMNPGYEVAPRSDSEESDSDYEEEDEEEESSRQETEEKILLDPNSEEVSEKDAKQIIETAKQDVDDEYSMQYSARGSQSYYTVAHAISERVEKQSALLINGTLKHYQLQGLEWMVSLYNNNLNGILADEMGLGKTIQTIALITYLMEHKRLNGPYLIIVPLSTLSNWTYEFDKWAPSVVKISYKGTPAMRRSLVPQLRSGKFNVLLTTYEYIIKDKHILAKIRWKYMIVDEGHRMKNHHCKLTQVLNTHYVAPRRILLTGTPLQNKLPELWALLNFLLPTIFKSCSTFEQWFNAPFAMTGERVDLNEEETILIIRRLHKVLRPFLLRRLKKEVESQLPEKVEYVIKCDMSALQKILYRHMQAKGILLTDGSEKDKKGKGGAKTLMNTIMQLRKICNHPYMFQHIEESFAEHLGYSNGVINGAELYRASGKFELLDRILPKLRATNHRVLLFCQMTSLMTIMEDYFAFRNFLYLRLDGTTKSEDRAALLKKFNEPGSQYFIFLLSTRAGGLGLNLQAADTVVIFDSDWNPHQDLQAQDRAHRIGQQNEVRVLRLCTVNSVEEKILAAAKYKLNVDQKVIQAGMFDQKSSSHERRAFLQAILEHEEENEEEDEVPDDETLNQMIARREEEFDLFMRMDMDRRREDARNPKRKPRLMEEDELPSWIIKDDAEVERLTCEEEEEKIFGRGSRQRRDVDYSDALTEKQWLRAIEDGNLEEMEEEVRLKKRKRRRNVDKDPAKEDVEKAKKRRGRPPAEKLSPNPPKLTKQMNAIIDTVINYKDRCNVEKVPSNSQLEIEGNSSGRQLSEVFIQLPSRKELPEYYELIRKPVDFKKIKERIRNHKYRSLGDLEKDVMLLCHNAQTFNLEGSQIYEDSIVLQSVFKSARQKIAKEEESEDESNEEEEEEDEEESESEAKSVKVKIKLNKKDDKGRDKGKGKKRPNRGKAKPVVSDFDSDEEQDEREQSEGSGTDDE

With `Cn1c(=O)n(C2CCC(=O)NC2=O)c2ccc(CCCCCCCc3nccc(N4C5CCC4CN(c4cc(-c6ccccc6O)nnc4N)C5)n3)cc21` (centres unmarked) [I-287, 3-(5-(7-(4-(3-(3-amino-6-(2-hydroxyphenyl)pyridazin-4-yl)-3,8-diazabicyclo[3.2.1]octan-8-yl)pyrimidin-2-yl)heptyl)-3-methyl-2-oxo-2,3-dihydro-1H-benzo[d]imidazol-1-yl)piperidine-2,6-dione], the Dmax at SMARCA2 [1] is 70 to 90%; at SMARCA2 [2], greater than 90%. Besides, the DC50 at SMARCA2 [1] is less than 100 nM; at SMARCA2 [2] (NCI-H1299 cells), 100 to 500 nM.

`Cc1ncsc1-c1ccc(CNC(=O)[C@@H]2C[C@@H](O)CN2C(=O)[C@@H](NC(=O)[C@H]2CC[C@@H](c3cnc(N4C5CCC4CN(c4cc(-c6ccccc6O)nnc4N)C5)nc3)CC2)C(C)(C)C)cc1` [I-336]: on SMARCA2 [1], the Dmax is greater than 90% and the 50% degradation concentration (DC50) was less than 100 nM. For the same compound, on SMARCA2 [2] (NCI-H1299 cells), the DC50 is less than 100 nM.

As to `Cc1ncsc1-c1ccc(CNC(=O)[C@@H]2C[C@@H](O)CN2C(=O)[C@@H](NC(=O)[C@H]2CC[C@H](c3cnc(N4C5CCC4CN(c4cc(-c6ccccc6O)nnc4N)C5)nc3)CC2)C(C)(C)C)cc1` [I-337, (2S,4R)-1-((2S)-2-((1r,4S)-4-(2-(3-(3-amino-6-(2-hydroxyphenyl)pyridazin-4-yl)-3,8-diazabicyclo[3.2.1]octan-8-yl)pyrimidin-5-yl)cyclohexanecarboxamido)-3,3-dimethylbutanoyl)-4-hydroxy-N-(4-(4-methylthiazol-5-yl)benzyl)pyrrolidine-2-carboxamide], the greatest degradation seen (Dmax) on SMARCA2 [1] and at SMARCA2 [2] was greater than 90% in each case. Further, the DC50 on SMARCA2 [1] and at SMARCA2 [2] (NCI-H1299 cells) was less than 100 nM each time.

Consider `Cc1ncsc1-c1ccc(CNC(=O)[C@@H]2C[C@@H](O)CN2C(=O)[C@@H](NC(=O)[C@H]2CC3(C2)C[C@H](N2CCC(n4cc(-c5cc(-c6ccccc6O)nnc5N)cn4)CC2)C3)C(C)(C)C)cc1` (some centres unmarked) [I-389], for which, at SMARCA2 [1], the Dmax is 70 to 90% and the 50% degradation concentration (DC50) was less than 100 nM. Moreover, at SMARCA2 [2] (NCI-H1299 cells), the “SMARCA2 MSD H1299 degradation 24 h: Dmax %” value is recorded as “A (A (>90% degradation))” and the DC50 lay in the range of 100 to 500 nM.

On to `Cc1ncsc1-c1ccc(CNC(=O)[C@@H]2C[C@@H](O)CN2C(=O)[C@@H](NC(=O)[C@H]2CC[C@@H](CN3CCC(n4cc(-c5cc(-c6ccccc6O)nnc5N)cn4)CC3)CC2)C(C)(C)C)cc1` [I-402], for which the Dmax at SMARCA2 [1] and at SMARCA2 [2] was 70 to 90% in each case. Further, the DC50 was less than 100 nM on SMARCA2 [1] and 100 to 500 nM at SMARCA2 [2] (NCI-H1299 cells).

In the case of `Cc1ncsc1-c1ccc(CNC(=O)[C@@H]2C[C@@H](O)CN2C(=O)[C@@H](NC(=O)[C@H]2CC[C@H](CN3CCC(n4cc(-c5cc(-c6ccccc6O)nnc5N)cn4)CC3)CC2)C(C)(C)C)cc1` [I-403], the Dmax at SMARCA2 [1] was 70 to 90%; at SMARCA2 [2], greater than 90%. Besides, the DC50 at SMARCA2 [1] was less than 100 nM; on SMARCA2 [2] (NCI-H1299 cells), 100 to 500 nM.

Source of the values: US12624044B2, “SMARCA degraders and uses thereof” (Kymera Therapeutics, Inc., priority 2019, dated 2026).
